According to US10532106B2 (priority 2014, dated 2020):
Each block holds one molecule with its values, some of them ahead of it. Numbered stars: 1 amine (or outer) side, 2 acyl side, 3 side chain; on linkers, the order of the positions; unused ones are H or OH. Bridge positions count the residues as written; N and C are the ends. Square brackets hold non-standard residues; d marks the D form. Peptide text beside a SMILES is read from it. * marks the point of attachment. 5FAM = O=C1OC2(c3ccc(O)cc3Oc3cc(O)ccc32)c2ccc(C(=O)*)cc21; 1Nal = N[C@@H](Cc1cccc2ccccc12)C(=O)O; 2Nal = N[C@@H](Cc1ccc2ccccc2c1)C(=O)O; TBMB = c1c(C[*:1])cc(C[*:3])cc1C[*:2]; Tle = CC(C)(C)[C@H](N)C(=O)O; βAla = NCCC(=O)O; Sar = CNCC(=O)O

Columns and labels:
[1] = biological target: T1, MT1-MMP hemopexin domain (Homo sapiens, UniProt P50281); assay: Direct binding fluorescence polarisation (FP) assay
T1 construct: residues Cys319-Gly511 from the human gene; His6 (N); made in house; host or cells: HEK293 (transient), pEXPR-IBA42 vector
Procedure: Direct Binding Fluorescence Polarisation or Anisotropy Assays are performed by titrating a constant concentration of fluorescent tracer (here, the fluoresceinated bicyclic peptide to be studied) with its binding partner (here, the MT1-MMP hemopexin domain). As the concentration of binding partner increases during the titration, the polarisation signal changes in proportion to the fraction of bound and unbound material. This allows determination of […] (Kd) quantitatively. Assay data can be fit using standard ligand binding equations.
The titrant (binding partner) concentration is varied from 0.1 nM up to typically 5 μM. The range is chosen such that the maximum change in fluorescent polarisation can be observed. Buffers employed are phosphate buffered saline in the presence of 0.01% Tween. Experiments were run in black 384 well low-bind/low volume plates (Corning 3820), and the fluorescent polarisation signal was measured using a BMG Pherastar FS plate reader.
Fluorescent tracers referred to in the text are bicyclic peptides that have been fluoresceinated using 5,6-carboxyfluorescein. Fluoresceination may be performed on the N-terminal amino group of the peptide, which is separated from the bicycle core sequence by a sarcosine spacer (usually Sar5). This can be done during Fmoc solid phase synthesis or post-synthetically (after cyclisation with TBMB and purification) if the N-terminal amino group is unique to the peptide. Fluoresceination can also be performed on the C-terminus, usually on a Lysine introduced as the first C-terminal residue, which is then separated from the bicycle core sequence by a sarcosine spacer (usually Sar6). Thus, N-terminal tracers can have a molecular format described as Fluo-Gly-Sar5-A(BicycleCoreSequence), and (BicycleCoreSequence)-A-Sar6-K(Fluo) for a C-terminally fluoresceinated construct. Fluorescent tracers used in the Examples are A-(17-69)-A-Sar6-K(Fluo), A-(17-69-07)-A-Sar6-K(Fluo), and A-(17-69-12)-A-Sar6-K(Fluo). Due to the acidic nature of the 17-69 fluorescent peptides, they were typically prepared as concentrated DMSO stocks, from which dilution were prepared in 100 mM Tris pH 8 buffer.

[2] = biological target: T1, MT1-MMP hemopexin domain; assay: Competition assay using fluorescence polarisation; type: binding; conditions: read-out: Kd
Source text: Here, a pre-formed complex of PEX with the fluorescent PEX-binding tracer is titrated with free, non-fluoresceinated bicyclic peptide. Since all 17-69-based peptides are expected to bind at the same site, the titrant will displace the fluorescent tracer from PEX. Dissociation of the complex can be measured quantitatively, and the Kd of the competitor (titrant) to the target protein determined. The advantage of the competition method is that the affinities of non-fluoresceinated bicyclic peptides can be determined accurately and rapidly.
Subsequently, the non-fluorescent competitor bicyclic peptide (usually just the bicycle core sequence) is titrated, such that it displaces the fluorescent tracer from the target protein. The displacement of the tracer is measured and associated with a drop in fluorescence polarisation. The drop in fluorescence polarisation is proportional to the fraction of target protein bound with the non-fluorescent titrant, and thus is a measure of the affinity of titrant to target protein.
The raw data is fit to the analytical solution of the cubic equation that describes the equilibria between fluorescent tracer, titrant, and binding protein. The fit requires the value of the affinity of fluorescent tracer to the target protein, which can be determined separately by direct binding FP experiments (see previous section).

[3] = Mouse pharmacokinetics, intravenous; type: in vivo; conditions: plasma, male CD1 mice, single intravenous 5.925 mg/kg
Procedure: Mouse pharmacokinetics were acquired using bicyclic peptide 17-69-04-N004, which was dosed to one group of 12 male CD1 mice as a single intravenous, 5.925 mg/kg doses as a 5 mL/kg bolus of a 1.19 mg/mL solution. […] Blood samples were taken from two animals per time-point, via cardiac puncture under terminal anaesthesia, at 0.08, 0.5, 1, 2 and 4 hours post-dose, and transferred to EDTA tubes for plasma generation. Plasma samples were immediately frozen at −20 C. For analysis, samples were thawed rapidly and 50 μL aliquots were treated with 3 volumes of extraction solvent (2:9:9 mixture of 10 mM ammonium bicarbonate, pH 8, acetonitrile and methanol, containing an analytical internal standard). Precipitated proteins were removed by centrifugation and the supernatant was analysed by LC-MS/MS. Quantification of the samples was by reference to a calibration line prepared in control mouse plasma. Pharmacokinetic parameters were determined by non-compartmental analysis using the software package PK Solutions 2.0 from Summit Research Services.

[4] = Table 2, FP method Direct Binding, read-out: Kd
[5] = Table 8, substitutions at position 4

- Kd ([1]; Table 14, fluoresceinated derivative, read-out: V1T1-MMP (=MMP-14) (Kd, in nM)): 2.2 nM
SMILES: C[C@H](NC(=O)CN(C)C(=O)CN(C)C(=O)CN(C)C(=O)CN(C)C(=O)CN(C)C(=O)CN(C)C(=O)CN(C)C(=O)CN(C)C(=O)CN(C)C(=O)CN(C)C(=O)CCNC(=O)c1ccc2c(c1)C(=O)OC21c2ccc(O)cc2Oc2cc(O)ccc21)C(=O)N[C@H]1CSCc2cc3cc(c2)CSC[C@H](NC(=O)[C@@H](C)NC(=O)[C@H](Cc2cccc4ccccc24)NC(=O)[C@H](CCC(=O)O)NC(=O)[C@H](CC(N)=O)NC(=O)[C@@H](C)NC1=O)C(=O)N[C@@H](CCC(=O)O)C(=O)N[C@@H](CC(=O)O)C(=O)N[C@@H](Cc1ccccc1)C(=O)N[C@@H](Cc1ccc(O)cc1)C(=O)N[C@@H](CC(=O)O)C(=O)N[C@@H](C(C)(C)C)C(=O)N[C@H](C(N)=O)CSC3 [17-69-07-N258, Fluorescein-(bAla)-Sar10-A-(17-69-07) D-Ala1 1Nal4 D-Ala5 tBuGly11] ({5FAM-βAla}-[Sar][Sar][Sar][Sar][Sar][Sar][Sar][Sar][Sar][Sar]AC[dA]NE[1Nal][dA]CEDFYD[Tle]C-NH2; linker 12-18-25 via TBMB)

SMILES: CC[C@H](C)[C@@H]1NC(=O)[C@H](CC(=O)O)NC(=O)[C@H](Cc2ccc(O)cc2)NC(=O)[C@H](Cc2ccccc2)NC(=O)[C@H](CC(=O)O)NC(=O)[C@H](CCC(=O)O)NC(=O)[C@@H]2CSCc3cc(cc(c3)CSC[C@@H](C(=O)N[C@@H](C)C(=O)N(C)CC(=O)N(C)CC(=O)N(C)CC(=O)N(C)CC(=O)N(C)CC(=O)N(C)CC(=O)N[C@@H](CCCCNC(=O)c3ccc4c(c3)C(=O)OC43c4ccc(O)cc4Oc4cc(O)ccc43)C(N)=O)NC1=O)CSC[C@H](NC(=O)[C@H](C)N)C(=O)N[C@@H](CCSC)C(=O)N[C@@H](CC(N)=O)C(=O)N[C@@H](CCC(N)=O)C(=O)N[C@@H](Cc1ccccc1)C(=O)NCC(=O)N2 [17-69-12-N005, A-(17-69-12)-A-Sar6-K(Fl)] (H-ACMNQFGCEDFYDICA[Sar][Sar][Sar][Sar][Sar][Sar]K(5FAM)-NH2; linker 2-8-15 via TBMB)
- Kd [1, 4]: 3.1 nM

SMILES: CC[C@H](C)[C@@H]1NC(=O)[C@H](CC(=O)O)NC(=O)[C@H](Cc2ccc(O)cc2)NC(=O)[C@H](Cc2ccccc2)NC(=O)[C@H](CC(=O)O)NC(=O)[C@H](CCC(=O)O)NC(=O)[C@@H]2CSCc3cc(cc(c3)CSC[C@@H](C(=O)N[C@@H](C)C(=O)N(C)CC(=O)N(C)CC(=O)N(C)CC(=O)N(C)CC(=O)N(C)CC(=O)N(C)CC(=O)N[C@@H](CCCCNC(=O)c3ccc4c(c3)C(=O)OC43c4ccc(O)cc4Oc4cc(O)ccc43)C(N)=O)NC1=O)CSC[C@H](NC(=O)[C@H](C)N)C(=O)N[C@@H](CCCCN)C(=O)N[C@@H](CC(N)=O)C(=O)N[C@@H](CCCNC(=N)N)C(=O)NCC(=O)N[C@@H](Cc1ccccc1)C(=O)NCC(=O)N2 [Peptide 17-69-N004, A-(17-69)-A-Sar6-K(Fl)] (H-ACKNRGFGCEDFYDICA[Sar][Sar][Sar][Sar][Sar][Sar]K(5FAM)-NH2; linker 2-9-16 via TBMB)
- Kd [1, 4]: 692 nM

SMILES: CC[C@H](C)[C@@H]1NC(=O)[C@H](CC(=O)O)NC(=O)[C@H](Cc2ccc(O)cc2)NC(=O)[C@H](Cc2ccccc2)NC(=O)[C@H](CC(=O)O)NC(=O)[C@H](CCC(=O)O)NC(=O)[C@@H]2CSCc3cc(cc(c3)CSC[C@@H](C(=O)N[C@@H](C)C(=O)N(C)CC(=O)N(C)CC(=O)N(C)CC(=O)N(C)CC(=O)N(C)CC(=O)N(C)CC(=O)N[C@@H](CCCCNC(=O)c3ccc4c(c3)C(=O)OC43c4ccc(O)cc4Oc4cc(O)ccc43)C(N)=O)NC1=O)CSC[C@H](NC(=O)[C@H](C)N)C(=O)N[C@@H](Cc1ccc(O)cc1)C(=O)N[C@@H](CC(N)=O)C(=O)N[C@@H](CCC(=O)O)C(=O)N[C@@H](Cc1ccccc1)C(=O)NCC(=O)N2 [17-69-07-N040, A-(17-69-07)-A-Sar6-K(Fl)] (H-ACYNEFGCEDFYDICA[Sar][Sar][Sar][Sar][Sar][Sar]K(5FAM)-NH2; linker 2-8-15 via TBMB)
- Kd [1, 4]: 0.52 nM

SMILES: CC[C@H](C)[C@@H]1NC(=O)[C@H](CC(=O)O)NC(=O)[C@H](Cc2ccc(O)cc2)NC(=O)[C@H](Cc2ccccc2)NC(=O)[C@H](CC(=O)O)NC(=O)[C@H](CCC(=O)O)NC(=O)[C@@H]2CSCc3cc(cc(c3)CSC[C@H](NC(C)=O)C(=O)N[C@@H](Cc3ccc(O)cc3)C(=O)N[C@@H](CC(N)=O)C(=O)N[C@@H](CCC(=O)O)C(=O)N[C@@H](Cc3ccc(Cl)c(Cl)c3)C(=O)NCC(=O)N2)CSC[C@@H](C(N)=O)NC1=O [17-69-07-N137, Ac-(17-69-07) 3,4-DCPhe4]
- Kd [2, 5]: 1.85 ± 2.45 nM

SMILES: CC[C@H](C)[C@@H]1NC(=O)[C@H](CC(=O)O)NC(=O)[C@H](Cc2ccc(O)cc2)NC(=O)[C@H](Cc2ccccc2)NC(=O)[C@H](CC(=O)O)NC(=O)[C@H](CCC(=O)O)NC(=O)[C@@H]2CSCc3cc(cc(c3)CSC[C@H](NC(C)=O)C(=O)N[C@@H](Cc3ccc(O)cc3)C(=O)N[C@@H](CC(N)=O)C(=O)N[C@@H](CCC(=O)O)C(=O)N[C@@H](C(C)(C)C)C(=O)NCC(=O)N2)CSC[C@@H](C(N)=O)NC1=O [17-69-07-N072, Ac-(17-69-07) tBuGly4] (Ac-CYNE[Tle]GCEDFYDIC-NH2; linker 1-7-14 via TBMB)
- Kd [2, 5]: > 5000 nM

SMILES: CC[C@H](C)[C@@H]1NC(=O)[C@H](CC(=O)O)NC(=O)[C@H](Cc2ccc(O)cc2)NC(=O)[C@H](Cc2ccccc2)NC(=O)[C@H](CC(=O)O)NC(=O)[C@H](CCC(=O)O)NC(=O)[C@@H]2CSCc3cc(cc(c3)CSC[C@@H](C(=O)N[C@@H](C)C(N)=O)NC1=O)CSC[C@H](NC(=O)[C@H](C)N)C(=O)N[C@@H](C(C)C)C(=O)N[C@@H](CC(N)=O)C(=O)N[C@@H](CCC(=O)O)C(=O)N[C@@H](Cc1ccccc1)C(=O)NCC(=O)N2 [17-69-03-N001, A-(17-69-03)-A] (H-ACVNEFGCEDFYDICA-NH2; linker 2-8-15 via TBMB)
- Kd ([2]; Table 2, FP method Competition, tracer A-(17-69-07)-A-Sar6-K(Fluorescein)): 16.7 nM

SMILES: CC[C@H](C)[C@@H]1NC(=O)[C@H](CC(=O)O)NC(=O)[C@H](Cc2ccc(O)cc2)NC(=O)[C@H](Cc2ccccc2)NC(=O)[C@H](CC(=O)O)NC(=O)[C@H](CCC(=O)O)NC(=O)[C@@H]2CSCc3cc(cc(c3)CSC[C@H](NC(C)=O)C(=O)N[C@@H](Cc3ccc(O)cc3)C(=O)N[C@@H](CC(N)=O)C(=O)N[C@@H](CCC(=O)O)C(=O)N[C@@H](Cc3ccccc3)C(=O)NCC(=O)N2)CSC[C@@H](C(N)=O)NC1=O [17-69-07-N004, Ac-(17-69-07) (wildtype)]
- AUC(0-inf) [3]: 4770 ng·h/mL
- AUC(0-t) [3]: 4770 ng·h/mL
- Cmax [3]: 15800 ng/mL
- Tmax [3]: 5 min
- clearance ([3]; read-out: Clearance based on AUC 0-∞): 20.7 mL/min/kg
- half-life ([3]; read-out: Elimination Half-life): 14 min
- Vd ([3]; read-out: Volume of Distribution based on AUC 0-∞): 0.4 L/kg

SMILES: CC[C@H](C)[C@@H]1NC(=O)[C@H](CC(=O)O)NC(=O)[C@H](Cc2ccc(O)cc2)NC(=O)[C@H](Cc2ccccc2)NC(=O)[C@H](CC(=O)O)NC(=O)[C@H](CCC(=O)O)NC(=O)[C@@H]2CSCc3cc(cc(c3)CSC[C@H](NC(C)=O)C(=O)N[C@@H](Cc3ccc(O)cc3)C(=O)N[C@@H](CC(N)=O)C(=O)N[C@@H](CCC(=O)O)C(=O)N[C@@H](Cc3ccc4ccccc4c3)C(=O)NCC(=O)N2)CSC[C@@H](C(N)=O)NC1=O [17-69-07-N068, Ac-(17-69-07) 2NAl4] (Ac-CYNE[2Nal]GCEDFYDIC-NH2; linker 1-7-14 via TBMB)
- Kd [2, 5]: 0.7 ± 0.19 nM
